Each block holds one compound with its values, some of them ahead of it. Calls of active or inactive are those of the source.
Columns and labels:
Ion channel NompC = Ion channel NompC (Danio rerio, UniProt Q7T1G6); experiment: Dose response cell-based high-throughput screening assay for agonists of the transient receptor potential channel N1 (TRPN1). [Related pubchem assays (depositor defined):AID1424, AID1448]; format: functional
Mucolipin-3 = target: T1, Mucolipin-3 (Homo sapiens, UniProt Q8TDD5); experiment: Fluorescence counterscreen assay for […] agonists: dose response cell-based high-throughput screening assay to identify agonists of the transient receptor potential channel ML3 (TRPML3). [Related pubchem assays: 1424, 1448 ]; format: functional
T1 sequence (Q8TDD5 whole entry): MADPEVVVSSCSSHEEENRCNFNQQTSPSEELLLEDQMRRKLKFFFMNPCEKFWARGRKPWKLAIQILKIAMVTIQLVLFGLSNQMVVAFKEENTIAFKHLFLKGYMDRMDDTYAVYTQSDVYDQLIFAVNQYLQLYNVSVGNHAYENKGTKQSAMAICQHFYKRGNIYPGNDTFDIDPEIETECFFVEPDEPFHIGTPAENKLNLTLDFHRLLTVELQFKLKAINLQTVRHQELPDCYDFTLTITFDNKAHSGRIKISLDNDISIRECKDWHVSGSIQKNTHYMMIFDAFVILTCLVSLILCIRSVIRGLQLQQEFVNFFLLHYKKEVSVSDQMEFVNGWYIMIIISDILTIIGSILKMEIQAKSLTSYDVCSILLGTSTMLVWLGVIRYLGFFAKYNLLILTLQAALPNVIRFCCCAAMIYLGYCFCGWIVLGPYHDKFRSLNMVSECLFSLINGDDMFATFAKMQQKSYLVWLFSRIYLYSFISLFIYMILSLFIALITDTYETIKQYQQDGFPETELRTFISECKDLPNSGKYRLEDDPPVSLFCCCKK

Troponin, cardiac muscle = Troponin, cardiac muscle (Homo sapiens, UniProt P19429+P45379+P63316); experiment: Fluorescence-based biochemical high throughput dose response assay for activators of the calcium sensitivity of cardiac Regulated Thin Filaments (RTF). [Related pubchem assays (depositor defined):AID493008, AID493018, AID504382, AID504383]; format: protein-complex assay
[1] = enhancers of respiration in Yfh1-depleted yeast, dose response, Friedreich's ataxia, plus single-dose screen (AID 1465); format: functional;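 note: yeast depleted of Yfh1p frataxin homolog grown on glycerol needing respiration; WST-1 tetrazolium dye reduction as measure of cellular dehydrogenase metabolic activity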
[2] = Luminescence-based counterscreen assay for KLF5 inhibitors: dose response cell-based high throughput screening assay to identify cytotoxic compounds using the IEC-6 intestinal epithelial cell line. [Related pubchem assays: 1700 (Primary screen.), 1834 (Confirmation screen.), 1858 (Summary AID.), 1905 (Counterscreen.)]; format: functional
[3] = target: Luciferin 4-monooxygenase (Photinus pyralis, UniProt P08659); experiment: Counter Screen for Luciferase-based Assay Positives. [Related pubchem assays: 620, 618, 411 ]
HT-1080 = experiment: cytotoxicity in HT1080 fibrosarcoma cells, cell-based, fluorescence readout (AID 620); format: functional; details: Homo sapiens
[4] = target: T2, Neuropeptide Y receptor type 1 (Homo sapiens, UniProt P25929); experiment: NPY-Y1 receptor antagonist potency, dose response, cell-based (AID 1277); format: functional
T2 sequence (P25929 whole entry): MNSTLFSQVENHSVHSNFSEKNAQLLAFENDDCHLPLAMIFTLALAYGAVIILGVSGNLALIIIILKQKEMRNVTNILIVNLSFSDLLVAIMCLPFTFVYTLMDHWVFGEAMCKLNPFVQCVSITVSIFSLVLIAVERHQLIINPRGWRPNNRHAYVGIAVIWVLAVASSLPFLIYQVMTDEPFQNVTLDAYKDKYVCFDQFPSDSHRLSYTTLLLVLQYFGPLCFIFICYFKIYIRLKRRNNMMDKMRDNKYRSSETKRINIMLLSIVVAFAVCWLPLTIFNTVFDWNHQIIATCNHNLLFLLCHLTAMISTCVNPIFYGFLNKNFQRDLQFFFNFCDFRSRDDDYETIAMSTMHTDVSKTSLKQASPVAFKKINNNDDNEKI

INS1 = experiment: beta cell apoptosis inhibitors, cytokine rescue, dose response, luminescence, retest (AID 449756); format: functional, cell-based;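 note: cell death triggered by IL-1 beta plus TNF-alpha plus IFN-gamma mixture; protective hits raise ATP signal compared with cytokine alone wells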
[5] = target: T3, Neuropeptide Y receptor type 2 (Homo sapiens, UniProt P49146); experiment: NPY-Y2 antagonist potency, selectivity check, dose response, counter-screen for NPY-Y1 antagonist project, cell-based (AID 1278); format: functional
T3 sequence (P49146 whole entry): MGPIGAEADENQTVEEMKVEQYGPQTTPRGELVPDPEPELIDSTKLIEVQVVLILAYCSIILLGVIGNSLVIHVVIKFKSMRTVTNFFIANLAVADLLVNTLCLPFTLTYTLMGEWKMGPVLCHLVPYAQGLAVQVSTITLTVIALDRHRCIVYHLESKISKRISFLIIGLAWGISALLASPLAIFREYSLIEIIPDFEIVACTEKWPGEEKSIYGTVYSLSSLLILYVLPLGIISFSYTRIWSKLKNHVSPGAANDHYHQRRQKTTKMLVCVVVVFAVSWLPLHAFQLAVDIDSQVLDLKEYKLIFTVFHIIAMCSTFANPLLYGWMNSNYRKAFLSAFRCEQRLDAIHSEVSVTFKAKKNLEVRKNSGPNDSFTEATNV

cells [6] = format: functional, cell-based; details: HEK-CNG
[7] = insulin promoter down-regulators in MIN6 cells, imaging, high-content screening, mouse beta cells (AID 1628); format: functional
[8] = target: T4, COUP transcription factor 2 (Homo sapiens, UniProt P24468); experiment: Luminescence-based cell-based high throughput dose response assay to identify inhibitors of COUP-TFII (NR2F2).; format: functional;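 note: HEK293 cells transiently cotransfected with COUP-TFII expression vector and reporter; luciferase reporter luminescence driven by COUP-TFII from the pX2-168 reporter plasmid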
T4 sequence (P24468 whole entry): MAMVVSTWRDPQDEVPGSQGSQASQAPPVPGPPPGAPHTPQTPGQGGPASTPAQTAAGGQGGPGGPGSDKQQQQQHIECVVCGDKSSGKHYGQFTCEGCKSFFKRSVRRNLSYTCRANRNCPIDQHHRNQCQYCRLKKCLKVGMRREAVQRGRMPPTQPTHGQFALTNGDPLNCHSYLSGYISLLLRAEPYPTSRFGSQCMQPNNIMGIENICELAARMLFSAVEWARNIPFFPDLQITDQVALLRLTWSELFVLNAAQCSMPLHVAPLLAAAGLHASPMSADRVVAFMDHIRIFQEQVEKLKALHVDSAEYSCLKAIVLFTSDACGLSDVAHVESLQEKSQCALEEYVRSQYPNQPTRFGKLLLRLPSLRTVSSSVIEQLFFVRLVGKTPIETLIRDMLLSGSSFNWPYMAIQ

Protein Wnt-3a = Protein Wnt-3a (Mus musculus, UniProt P27467); experiment: Wnt3a-driven reporter signaling inhibition, dose response, selectivity assay for Gli-SUFU antagonist project, Wnt-LIGHT cells, luminescence (AID 651570); format: functional; details: read-out: IC50_Mean;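 note: Wnt-LIGHT reporter cells stimulated with conditioned medium from Wnt3a-producing cells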
Galanin receptor type 3 = target: T5, Galanin receptor type 3 (Homo sapiens, UniProt O60755); experiment: Fluorescence-based cell-based primary high throughput dose response assay to identify antagonists of the Galanin Receptor 3 (GalR3).; format: functional
T5 sequence (O60755 whole entry): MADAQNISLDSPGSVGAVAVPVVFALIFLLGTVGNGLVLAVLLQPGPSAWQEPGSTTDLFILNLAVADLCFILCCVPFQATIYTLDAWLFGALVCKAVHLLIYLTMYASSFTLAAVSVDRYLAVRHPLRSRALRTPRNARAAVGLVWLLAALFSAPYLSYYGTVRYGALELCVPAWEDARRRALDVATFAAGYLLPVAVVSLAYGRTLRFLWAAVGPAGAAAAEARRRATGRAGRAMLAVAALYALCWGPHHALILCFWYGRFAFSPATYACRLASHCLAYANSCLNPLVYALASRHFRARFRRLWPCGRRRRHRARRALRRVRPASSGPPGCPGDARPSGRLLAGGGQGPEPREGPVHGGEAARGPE

[9] = cytotoxicity in MIN6 insulinoma cells, dose response, cytotoxicity control, cell-based, mouse insulinoma (AID 2122); format: functional;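 note: confirmatory high-throughput counterscreen run to flag cytotoxic compounds; mouse MIN-6 beta cells carrying an insulin promoter eGFP reporter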
[10] = target: T3, Neuropeptide Y receptor type 2; format: functional, cell-based
[11] = target: T2, Neuropeptide Y receptor type 1; format: functional
[12] = HepG2 cell cytotoxicity, dose response, cytotoxicity control for Shn3 inhibitor project, CellTiter-Glo, cherry-picked (AID 624134); format: functional, cell-based
[13] = target: 5-hydroxytryptamine receptor 1E (Homo sapiens, UniProt P28566); experiment: Counterscreen assay for S1P3 antagonists: Dose response cell-based high throughput screening assay to identify antagonists of the 5-Hydroxytryptamine Receptor Subtype 1E (5HT1E). [Related pubchem assays: 1429, 485 ]; format: functional
[14] = Shn3 3'UTR reporter inhibitors, dose response, cell-based, Clone20 osteoblasts, firefly luciferase, cherry-picked (AID 624132); format: functional;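 note: firefly luciferase luminescence from reporter carrying the Shn3 3'UTR in osteoblasts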
[15] = target: Sphingosine 1-phosphate receptor 3 (Homo sapiens, UniProt Q99500); experiment: Dose response cell-based high throughput screening assay for antagonists of the Sphingosine 1-Phosphate Receptor 3 (S1P3). [Related pubchem assays: 1429, 485 ]; format: functional
[16] = control 3'UTR Renilla luciferase suppression, dose response, counter-screen for Shn3 inhibitor project, cell-based, Clone20-Shn3RL, cherry-picked (AID 624133); format: functional
[17] = cytotoxicity toward NIH3T3 fibroblasts, dose response, counter-screen, cell-based, ATP luminescence, mouse fibroblasts (AID 2010); format: functional;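 note: cells exposed to compound for about 90 hours before reading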
[18] = inhibitors of intracellular T. cruzi replication, confirmation, NIH3T3 host cells, beta-gal luminescence (AID 2044); format: functional, cell-based;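 note: intracellular parasites grown in NIH/3T3 mouse fibroblasts as host cells; luminescent beta-galactosidase reporter signal from transgenic T. cruzi replicating inside host cells; inhibitors lower the luminescence signal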
Protein Tat = Protein Tat (Human immunodeficiency virus type 1 group M subtype B (isolate HXB2)(HIV-1), UniProt P04608); format: functional;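 note: tat binding to TAR RNA read out by fluorescence polarization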
Bcl-2-like protein 10 = target: T6, Bcl-2-like protein 10 (Homo sapiens, UniProt Q9HD36); experiment: Biochemical TR3 FP assay of Bcl-B inhibitor potency, EC50 (AID 1243); format: functional
T6 sequence (Q9HD36 whole entry): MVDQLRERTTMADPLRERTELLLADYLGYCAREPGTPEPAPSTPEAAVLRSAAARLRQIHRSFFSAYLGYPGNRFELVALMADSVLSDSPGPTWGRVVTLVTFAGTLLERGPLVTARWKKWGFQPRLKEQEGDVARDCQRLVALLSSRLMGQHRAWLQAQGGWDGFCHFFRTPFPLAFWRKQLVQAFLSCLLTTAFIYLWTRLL

cells [19] = format: functional, cell-based
Vero = Vero cell cytotoxicity, cytotoxicity control for flavivirus capping enzyme inhibitors (AID 588742); format: functional; details: Chlorocebus sabaeus
cells [20] = format: functional, cell-based; remark: listed apart in the source
[21] = inhibitors of Vif binding to APOBEC3G peptide, primary screen, biochemical, TR-FRET, GST-Vif 1-94, biotin-A3G peptide, dose response retest (AID 1117319); format: functional;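 note: TR-FRET signal of purified GST-Vif binding a biotinylated A3G peptide; inhibitors lower the FRET signal by blocking Vif and A3G binding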
[22] = THP-1 cell cytotoxicity, dose response, cytotoxicity control for Vif-APOBEC3G degradation inhibitor project, THP-1 cells (AID 1117359); format: functional; details: Human immunodeficiency virus 1, THP-1
[23] = target: Peroxisome proliferator-activated receptor gamma/Nuclear receptor coactivator 2 (Homo sapiens, UniProt P37231); format: functional;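 note: agonist potency for raising coactivator recruitment to the receptor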
[24] = target: Peroxisome proliferator-activated receptor gamma/Nuclear receptor coactivator 3 (Homo sapiens, UniProt P37231); format: functional;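 note: agonist potency for raising coactivator recruitment to the receptor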
[25] = target: Peroxisome proliferator-activated receptor gamma/Nuclear receptor coactivator 1 (Homo sapiens, UniProt P37231); format: functional;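 note: agonist potency as compounds enhance coactivator SRC-1 recruitment to PPARgamma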
Sequence of Peroxisome proliferator-activated receptor gamma/Nuclear receptor coactivator 1 (P37231 whole entry): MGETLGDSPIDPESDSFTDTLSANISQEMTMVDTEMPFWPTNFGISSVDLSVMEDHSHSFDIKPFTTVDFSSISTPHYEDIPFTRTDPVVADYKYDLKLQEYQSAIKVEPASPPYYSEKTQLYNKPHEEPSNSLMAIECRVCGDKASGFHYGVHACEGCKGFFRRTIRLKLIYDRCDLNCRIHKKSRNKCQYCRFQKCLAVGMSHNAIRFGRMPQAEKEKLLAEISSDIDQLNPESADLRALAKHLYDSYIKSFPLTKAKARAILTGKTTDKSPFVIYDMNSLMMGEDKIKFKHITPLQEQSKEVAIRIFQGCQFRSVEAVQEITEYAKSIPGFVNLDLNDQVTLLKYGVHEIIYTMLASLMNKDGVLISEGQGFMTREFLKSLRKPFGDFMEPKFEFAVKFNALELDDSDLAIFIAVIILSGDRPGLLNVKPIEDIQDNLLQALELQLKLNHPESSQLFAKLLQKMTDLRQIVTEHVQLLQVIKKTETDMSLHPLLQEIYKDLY
Sequence of Peroxisome proliferator-activated receptor gamma/Nuclear receptor coactivator 1 (Q15788 whole entry, further chain): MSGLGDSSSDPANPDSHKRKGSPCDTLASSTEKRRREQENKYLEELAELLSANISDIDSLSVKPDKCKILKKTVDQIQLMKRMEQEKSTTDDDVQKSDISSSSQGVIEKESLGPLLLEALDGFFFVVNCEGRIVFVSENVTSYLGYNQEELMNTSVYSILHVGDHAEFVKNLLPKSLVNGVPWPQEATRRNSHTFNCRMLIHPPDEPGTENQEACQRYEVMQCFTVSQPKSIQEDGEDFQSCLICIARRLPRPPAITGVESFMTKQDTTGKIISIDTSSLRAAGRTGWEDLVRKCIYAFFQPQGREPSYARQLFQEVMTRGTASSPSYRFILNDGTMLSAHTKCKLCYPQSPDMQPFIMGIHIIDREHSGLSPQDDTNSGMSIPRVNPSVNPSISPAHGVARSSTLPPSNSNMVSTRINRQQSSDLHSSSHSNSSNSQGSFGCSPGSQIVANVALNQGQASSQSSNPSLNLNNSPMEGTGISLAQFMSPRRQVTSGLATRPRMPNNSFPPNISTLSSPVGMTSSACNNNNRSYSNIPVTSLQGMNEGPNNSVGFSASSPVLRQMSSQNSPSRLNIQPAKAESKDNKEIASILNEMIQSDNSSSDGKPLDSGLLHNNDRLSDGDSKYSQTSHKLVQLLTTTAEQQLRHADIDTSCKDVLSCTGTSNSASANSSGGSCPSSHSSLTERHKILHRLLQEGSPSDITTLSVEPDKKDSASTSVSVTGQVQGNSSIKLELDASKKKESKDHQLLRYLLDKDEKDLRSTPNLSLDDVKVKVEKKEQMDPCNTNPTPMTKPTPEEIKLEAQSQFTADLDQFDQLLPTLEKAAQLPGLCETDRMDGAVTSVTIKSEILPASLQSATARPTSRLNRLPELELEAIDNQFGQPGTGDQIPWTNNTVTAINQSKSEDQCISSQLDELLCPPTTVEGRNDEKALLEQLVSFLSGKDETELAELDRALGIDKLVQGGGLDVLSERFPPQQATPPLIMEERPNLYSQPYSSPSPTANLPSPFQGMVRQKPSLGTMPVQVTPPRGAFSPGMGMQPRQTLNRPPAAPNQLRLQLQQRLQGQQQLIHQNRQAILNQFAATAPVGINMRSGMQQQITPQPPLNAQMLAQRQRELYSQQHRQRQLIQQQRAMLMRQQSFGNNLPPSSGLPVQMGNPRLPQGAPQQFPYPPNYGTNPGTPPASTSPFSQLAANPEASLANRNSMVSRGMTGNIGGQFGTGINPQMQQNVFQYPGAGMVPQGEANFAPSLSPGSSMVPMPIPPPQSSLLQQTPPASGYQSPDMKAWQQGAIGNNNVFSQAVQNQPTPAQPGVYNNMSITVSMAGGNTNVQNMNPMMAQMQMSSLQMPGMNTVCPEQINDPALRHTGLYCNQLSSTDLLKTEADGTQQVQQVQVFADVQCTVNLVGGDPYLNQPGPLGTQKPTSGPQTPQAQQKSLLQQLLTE

Sequence of 5-hydroxytryptamine receptor 1E (P28566 whole entry): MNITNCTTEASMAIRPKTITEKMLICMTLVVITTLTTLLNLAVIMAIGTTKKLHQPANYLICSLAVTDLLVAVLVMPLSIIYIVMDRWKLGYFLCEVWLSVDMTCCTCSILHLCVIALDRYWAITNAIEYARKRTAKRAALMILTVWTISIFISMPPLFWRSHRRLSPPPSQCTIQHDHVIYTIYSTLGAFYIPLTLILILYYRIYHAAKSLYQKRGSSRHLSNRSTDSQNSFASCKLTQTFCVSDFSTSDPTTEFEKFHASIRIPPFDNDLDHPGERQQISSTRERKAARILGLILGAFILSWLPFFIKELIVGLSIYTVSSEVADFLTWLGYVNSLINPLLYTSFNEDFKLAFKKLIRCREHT
Sequence of Ion channel NompC (Q7T1G6 whole entry): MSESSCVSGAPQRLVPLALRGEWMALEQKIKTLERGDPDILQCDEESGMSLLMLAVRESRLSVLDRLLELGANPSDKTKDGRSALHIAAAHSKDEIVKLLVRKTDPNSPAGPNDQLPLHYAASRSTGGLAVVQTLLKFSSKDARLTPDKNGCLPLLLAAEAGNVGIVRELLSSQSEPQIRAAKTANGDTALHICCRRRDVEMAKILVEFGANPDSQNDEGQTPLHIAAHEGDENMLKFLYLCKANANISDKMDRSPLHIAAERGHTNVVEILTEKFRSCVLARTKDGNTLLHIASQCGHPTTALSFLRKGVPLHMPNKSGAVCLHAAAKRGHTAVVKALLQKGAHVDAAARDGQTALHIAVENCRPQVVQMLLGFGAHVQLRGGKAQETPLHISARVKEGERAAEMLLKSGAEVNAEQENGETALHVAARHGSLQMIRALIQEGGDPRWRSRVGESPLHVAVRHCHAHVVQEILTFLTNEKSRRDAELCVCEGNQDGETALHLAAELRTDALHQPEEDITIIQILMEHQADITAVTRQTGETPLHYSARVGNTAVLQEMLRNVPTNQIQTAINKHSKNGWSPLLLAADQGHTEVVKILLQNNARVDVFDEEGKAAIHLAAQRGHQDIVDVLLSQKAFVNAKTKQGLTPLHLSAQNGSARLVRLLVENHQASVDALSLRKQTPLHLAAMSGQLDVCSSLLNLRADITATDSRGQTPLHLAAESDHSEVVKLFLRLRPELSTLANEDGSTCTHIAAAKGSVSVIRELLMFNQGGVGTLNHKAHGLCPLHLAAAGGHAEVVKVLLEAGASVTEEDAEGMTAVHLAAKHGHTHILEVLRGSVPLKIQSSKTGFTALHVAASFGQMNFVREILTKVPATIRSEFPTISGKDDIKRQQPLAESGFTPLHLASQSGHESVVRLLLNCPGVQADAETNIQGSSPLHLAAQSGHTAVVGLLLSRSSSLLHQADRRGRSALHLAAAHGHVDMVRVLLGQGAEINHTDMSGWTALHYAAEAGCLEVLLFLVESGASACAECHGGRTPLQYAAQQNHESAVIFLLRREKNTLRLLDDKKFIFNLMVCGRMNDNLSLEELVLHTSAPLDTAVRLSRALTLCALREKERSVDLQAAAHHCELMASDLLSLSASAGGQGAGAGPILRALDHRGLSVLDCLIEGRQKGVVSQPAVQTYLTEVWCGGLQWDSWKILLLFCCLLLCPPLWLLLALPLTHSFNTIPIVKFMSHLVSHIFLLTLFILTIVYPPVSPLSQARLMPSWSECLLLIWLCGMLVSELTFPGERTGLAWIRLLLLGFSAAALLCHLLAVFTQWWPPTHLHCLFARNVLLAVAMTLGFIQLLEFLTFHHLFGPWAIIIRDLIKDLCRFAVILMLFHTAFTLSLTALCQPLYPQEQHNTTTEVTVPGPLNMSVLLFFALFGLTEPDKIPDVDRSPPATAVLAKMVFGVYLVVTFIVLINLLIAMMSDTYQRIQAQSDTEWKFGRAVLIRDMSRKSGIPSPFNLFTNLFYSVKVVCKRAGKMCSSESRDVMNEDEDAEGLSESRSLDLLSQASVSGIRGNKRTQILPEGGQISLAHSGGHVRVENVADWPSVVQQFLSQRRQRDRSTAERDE
Sequence of Protein Tat (P04608 whole entry): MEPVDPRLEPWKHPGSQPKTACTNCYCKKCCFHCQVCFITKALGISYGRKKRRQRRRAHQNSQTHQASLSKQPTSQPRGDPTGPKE
Sequence of Luciferin 4-monooxygenase (P08659 whole entry): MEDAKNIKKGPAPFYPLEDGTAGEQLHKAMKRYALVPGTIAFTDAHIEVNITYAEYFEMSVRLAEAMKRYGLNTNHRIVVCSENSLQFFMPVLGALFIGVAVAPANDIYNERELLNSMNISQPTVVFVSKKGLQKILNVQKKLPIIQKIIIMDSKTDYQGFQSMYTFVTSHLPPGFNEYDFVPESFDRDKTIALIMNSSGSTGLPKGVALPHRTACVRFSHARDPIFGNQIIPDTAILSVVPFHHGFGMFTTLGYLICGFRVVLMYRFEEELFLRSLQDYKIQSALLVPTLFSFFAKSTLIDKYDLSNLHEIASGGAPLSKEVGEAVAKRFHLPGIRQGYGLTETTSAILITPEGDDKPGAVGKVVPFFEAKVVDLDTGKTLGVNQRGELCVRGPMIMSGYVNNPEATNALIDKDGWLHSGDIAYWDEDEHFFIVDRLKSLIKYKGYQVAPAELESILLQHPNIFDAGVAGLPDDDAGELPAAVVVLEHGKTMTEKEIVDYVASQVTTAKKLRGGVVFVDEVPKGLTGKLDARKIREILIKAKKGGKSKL
Sequence of Protein Wnt-3a (P27467 whole entry): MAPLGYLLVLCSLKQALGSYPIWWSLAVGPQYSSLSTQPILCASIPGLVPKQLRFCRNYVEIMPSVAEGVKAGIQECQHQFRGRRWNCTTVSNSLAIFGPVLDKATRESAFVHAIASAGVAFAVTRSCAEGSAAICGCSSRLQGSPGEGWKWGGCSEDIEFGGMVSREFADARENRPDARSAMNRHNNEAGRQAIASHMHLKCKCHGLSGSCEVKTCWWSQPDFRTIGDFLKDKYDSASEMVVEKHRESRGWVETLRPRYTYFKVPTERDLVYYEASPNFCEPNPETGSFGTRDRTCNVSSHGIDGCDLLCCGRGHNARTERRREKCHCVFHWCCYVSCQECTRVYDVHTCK

EC50 (Ion channel NompC): 5.92 µM (active) | EC50 (Mucolipin-3): 12.2 µM (not active) | EC50 (Troponin, cardiac muscle): 0.87 µM (active)
SMILES: CN1CCS/C1=C/C=C1\SC(=S)N(CC(=O)O)C1=O
EC50 [1]: > 100 µM (active)

SMILES: O=C(Nc1nccs1)c1cc2c(s1)CCCCC2
IC50 [2]: 33.2 µM (not active) | EC50 [3]: 8.26 µM (active) | EC50 (HT-1080): > 50 µM (not active)

SMILES: COc1ccccc1-n1c(-c2ccccc2)c[n+]2c1CCc1ccccc1-2
IC50 [4]: 8.77 µM (active) | AC50 (INS1; Rattus norvegicus, INS1): 2.31 µM (active) | AC50 (INS1; ins1): 3.62 µM (active) | IC50 [5]: 11.6 µM (not active) | EC50 (cells [6]): > 29.9 µM (inactive) | IC50 [7]: 0.548 µM (active) | IC50 [8]: 6.73 µM (active) | IC50 (Protein Wnt-3a): 6.31 µM (active) | IC50 (Galanin receptor type 3): > 1.11 µM (active) | IC50 [9]: 0.266 µM (active)

IC50 [10]: 4.32 µM (active) | IC50 [11]: 5.31 µM (active)
SMILES: COC(=O)c1cc(Cl)c(NC(=O)c2ccc(C(C)(C)C)cc2)cc1OC

SMILES: FC(F)(F)c1cccc(NC(S)=NC(c2ccccc2)c2ccccc2)c1
AC50 [12]: 21.2 µM (active) | IC50 [13]: > 50 µM (not active) | AC50 [14]: 7.17 µM (active) | IC50 [15]: 3.29 µM (active) | AC50 [16]: 26.2 µM (active) | EC50 [17]: 9.61 µM (active) | EC50 [18]: 2.22 µM (active)

SMILES: Oc1cccc(/C=N/c2c(-c3ccco3)nc3ccccn23)c1
IC50 (Protein Tat): 53.3 µM (inconclusive) | EC50 (Bcl-2-like protein 10): 9.07 µM (active) | EC50 (cells [19]): > 350 µM (not active) | CC50 (Vero): > 40 µM (active) | EC50 (cells [20]): 66.5 µM (active) | IC50 [21]: > 66.8 µM (active) | CC50 [22]: > 40 µM (active)

EC50 [23]: > 79.4 µM (not active) | EC50 [24]: > 79.4 µM (not active) | EC50 [25]: > 79.4 µM (not active)
SMILES: CC(C)(C)c1ccc(OCc2ccc(C(=O)N3CCOCC3)o2)cc1

— ChEMBL document CHEMBL1201862, “PubChem BioAssay data set” (2004)
